Results published in patent US8278072B1, “Method for synthesis of sialylated products using reversible sialylation” (Health Research, Inc., priority 2007, dated 2012).
Marks after values point to notes of the source that are not given here.

Experiments:
ST3Gal-II [1] = molecular target: T1, ST3Gal-II (Rattus norvegicus, UniProt Q11205); experiment: Reverse sialylation: transfer of [9-3H]NeuAc from sialylated donor to nucleotide phosphates (WGA-agarose); format: biochemical; conditions: for Incorporation of [9-3H]NeuAc expressed as percent of the CPM incorporated into 5′-CMP: nucleotide phosphate 1 mM as acceptor, donor [1]
T1 construct: purchased Calbiochem
T1 sequence (Q11205 1-350): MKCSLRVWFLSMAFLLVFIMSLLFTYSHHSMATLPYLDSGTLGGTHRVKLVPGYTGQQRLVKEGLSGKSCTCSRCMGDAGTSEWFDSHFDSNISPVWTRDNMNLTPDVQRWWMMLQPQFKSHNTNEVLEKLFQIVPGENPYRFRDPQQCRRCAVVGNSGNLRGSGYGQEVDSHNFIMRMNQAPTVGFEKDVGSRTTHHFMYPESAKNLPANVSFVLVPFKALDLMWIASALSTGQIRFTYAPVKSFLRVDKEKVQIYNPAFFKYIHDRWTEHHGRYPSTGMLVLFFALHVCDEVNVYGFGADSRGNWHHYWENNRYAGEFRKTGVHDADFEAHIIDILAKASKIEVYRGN
Description: FIG. 1. Nucleotide phosphates as acceptors of radioactivity from [9-^3H]NeuAcα2,3Galβ,13 (GlcNAcβ1,6)GalNAcα-O—Al (Al=Allyl) [[9-^3H] [1]] in the presence of ST3Gal-II (scheme-I). Reaction mixtures (RM) with the following composition were incubated at 37° C. for 21 hours in 100 mM NaCa Codylate buffer, pH6.0: i) RM containing 150 μM (0.4 μCi) [[9-^3H] [1]] (donor) along with 0.8 mU ST3Gal-II but no 5″-CMP; and, ii) RM containing [[9-^3H] [1]] and 1.0 mM 5′-CMP, along with ST3Gal-II. Products formed were fractionated on a WGA-agarose column. […] The feasibility of the reverse reaction is well established in literature. Schematic symbols: ♦:sialic acid, ●:Gal, □:GalNAc, ▪:GlcNAc.
All enzymatic sialylation reactions were typically carried out in 100 mM NaCa Codylate buffer pH6.0 in the presence of enzyme, synthetic acceptor (at 7.5 mM or as indicated in each experiment) and 0.2 μCi CMP-[9-^3H]NeuAc (NEN-Dupont, 29 mCi/μmol). The concentration of total CMP-NeuAc was adjusted in individual reactions by supplementing with additional cold CMP-NeuAc. Reaction volume was 20 μl. Products formed were separated using four different chromatography procedures (below). In all cases, the radioactive content of isolated products was determined by using 3a70 scintillation cocktail (Research Products International, Mount Prospect, Ill.), and a Beckman LS6500 scintillation counter.
a) Biogel P2 chromatography: A Biogel P2 column (Fine Mesh; 1.0×116.0 cm) was used with 0.1 M pyridine acetate (pH5.4) as the eluent at room temperature. […] Fractions of 1.0 ml were collected. The bound material was then eluted with 0.5M GlcNAc or 0.2M Gal in the same buffer. […] Calculation of equilibrium constant, Keq: Equilibrium constant was calculated for selected reversible bimolecular reactions that are denoted by:
Cloned and purified rat sialyltransferase α2,3(O)ST (ST3Gal-II) is used in many experiments presented in this manuscript. […] In order to determine if the sialylation reaction is reversible (FIG. 1), [9-^3H]NeuAcα2,3Galβ,13(GlcNAcβ1,6)GalNAcα-O—Al (Al=Allyl) [9-^3H[1]] was prepared using ST3Gal-II in the presence of CMP-[9-^3H]NeuAc and the trisaccharide acceptor Galβ1,3(GlcNAcβ1,6)GalNAcα-O—Al, and the radiolabeled product was isolated using Biogel P2 chromatography. […] Two different reaction mixtures were then prepared with: i) [9-^3H[1]] and ST3Gal-II but without 5″-CMP; and ii) [9-^3H[1]] and 5″-CMP along with ST3Gal-II.

ST3Gal-II [2] = molecular target: T1, ST3Gal-II; experiment: Serial transfer of sialic acid from donor via 5′-CMP to acceptors (scheme-II); format: biochemical; conditions: for Incorporation of [9-3H]NeuAc from donor [3], percent of the CPM incorporated into [5]: 150 μM donor [3]
Description: FIG. 3. Serial transfer of sialic acid using scheme-II was followed at increasing concentrations of acceptor D-Fucβ1,3GalNAcα-O-Bn. The donor used was either: i) 0.15 mM [9-^3H]CMP-NeuAc; or, ii) 0.15 mM [9-^3H]NeuAcα2,3Galβ1,3(4-FGlcNAcβ1,6)GalNAcα-O-Bn [9-^3H [2]] in the presence of 2.0 mM 5′-CMP, or iii) [9-^3H]NeuAcα2,3Galβ1,3(6-O-SulfoGlcNAcβ1,6)GalNAcα-O—Al [[9-^3H] [4]] in the presence of 2.0 mM 5′-CMP. In runs where [9-^3H [2]] was donor since both and [2] bind C18 cartridges, control runs were performed in the absence of D-Fucβ1,3GalNAcα-O-Bn to estimate the amount of [9-^3H]CMP-NeuAc formed under the experimental conditions. 80-85% of the radioactivity was transferred to CMP-NeuAc in these runs. The amount of CMP-NeuAc remaining in runs with was then subtracted from CMP-NeuAc radioactivity in the control run to determine the amount of sialylated. To complement this run, studies were also performed with [[9-^3H] […] In these runs, the amount of sialylated was determined by measuring radioactivity retained in the C18-cartridge. a. Equilibrium constant was 5.55 when CMP-[9-^3H]NeuAc was donor. b. ˜10-fold lower acceptor concentration was required for similar extents of reaction when CMP-[9-^3H]NeuAc was donor, compared to core-2 based donors and [4].
We tested the possibility that CMP-NeuAc formed above may be available for transfer to other acceptors using ST3Gal-II (scheme-II, FIG. 3). For this, three radiolabeled donors were prepared using methods described above: two were based on the mucin Core-2 structure ([[9-^3H] [1]] and [9-^3H]NeuAcα2,3Galβ1,3(6-O-SulfoGlcNAcβ1,6)GalNAcα-O—Al [[9-^3H] [4]]) while the third was based on the Globo glycolipid ([9-^3H] [3]). The transfer of [9-^3H]NeuAc from these sialylated donors to various T-hapten (Galβ1,3GalNAcα) and mucin core2-based glycoside acceptors in the presence of 5′-CMP and ST3Gal-II was assessed (Table III). All three […] of ST3Gal-II ([1], [3] and [4]) allowed formation of CMP-[9-^3H]NeuAc, and a diverse array of products.
The transfer of [9-^3H]NeuAc from [[9-^3H][1]] to D-Fucβ1,3GalNAcα-O-Bn in the presence of 5′-CMP and ST3Gal-II increased linearly in the first two hours and it reached saturation at 4 hours (FIG. 12), and thus the data in Table III (4 hours time point) represent equilibrium conditions. […] Further, diverse sialylated products can be formed using the same synthetic sialylated donor.
In order to compare the efficiency of individual reactions of scheme II, independent runs were performed where either 0.15 mM [9-^3H]CMP-NeuAc, 0.15 mM [9-^3H] [2] or 0.15 mM [9-^3H] [4] was the donor, and [5] was the acceptor (FIG. 3). 2 mM 5′-CMP was added in runs with core-2 donors and [4], and thus reverse sialylation of these molecules was feasible. Keq for transfer of sialic acid from CMP-NeuAc to [5] was 5.55 (FIG. 3a). […] (˜6 mM) or [9-^3H[4]] (˜6 mM). Thus, while the two-step mechanism results in lower conversion than CMP-NeuAc alone, the transfer of NeuAc still takes place at an appreciable rate.

[3] = acceptor 2.5 mM, 1 mM 5′-CMP, 4 hours
[4] = acceptor 2.5 mM, 150 μM donor [4], 1 mM 5′-CMP, 4 hours
[5] = acceptor 2.5 mM, 150 μM donor [1], 1 mM 5′-CMP, 4 hours

Row | Compound | Incorporation of [9-3H]NeuAc expressed as percent of the CPM incorporated into 5′-CMP (ST3Gal-II [1]) [%] | Incorporation of [9-3H]NeuAc from donor [3], percent of the CPM incorporated into [5] (ST3Gal-II [2]; [3]) [%] | Incorporation of [9-3H]NeuAc from donor [4], percent of the CPM incorporated into [5] (ST3Gal-II [2]; [4]) [%] | Incorporation of [9-3H]NeuAc from donor [1], percent of the CPM incorporated into [5] (ST3Gal-II [2]; [5]) [%] | further results
1 | Nc1ncnc2c1ncn2[C@@H]1O[C@H](COP(=O)(O)O)[C@@H](O)[C@H]1O [5′-AMP] | 3.0 |  |  |  | 
2 | Nc1nc2c(ncn2[C@@H]2O[C@H](COP(=O)(O)O)[C@@H](O)[C@H]2O)c(=O)[nH]1 [5′-GMP] | 2.3 |  |  |  | 
3 | CO[C@H]1[C@@H](O)[C@@H](CO)O[C@@H](O[C@H]2[C@H](O)[C@@H](NC(C)=O)[C@H](OC[C@H]3O[C@H](OCc4ccccc4)[C@H](NC(C)=O)[C@@H](O[C@@H]4O[C@H](CO)[C@H](O)[C@H](O)[C@H]4O)[C@H]3O)O[C@@H]2CO)[C@@H]1O [[9], 3-O-MeGalβ1,4GlcNAcβ1,6(Galβ1,3)GalNAcα-O-Bn] |  |  | 10.0 | 22.4 | 
4 | CO[C@@H]1[C@H](O)[C@@H](O)[C@H](O[C@H]2[C@@H](O)[C@@H](CO)O[C@H](OCc3ccccc3)[C@@H]2NC(C)=O)O[C@@H]1CO [[11], 4-O-MeGalβ1,3GalNAcα-O-Bn] |  | 0.2 | 2.7 | 8.9 | 
5 | CO[C@@H]1[C@H](O)[C@@H](O)[C@H](O[C@H]2[C@@H](O)[C@@H](CO[C@@H]3O[C@H](CO)[C@@H](O[C@@H]4O[C@H](CO)[C@H](O)[C@H](O)[C@H]4O)[C@H](O)[C@H]3NC(C)=O)O[C@H](OCc3ccccc3)[C@@H]2NC(C)=O)O[C@@H]1CO [[13], Galβ1,4GlcNAcβ1,6(4-O-MeGalβ1,3)GalNAcα-O-Bn] |  |  | 0 | 1.3 | 
6 | D-Fucβ1,3GalNAcα-O-Bn [[5]] |  | 100.0 | 100.0 | 100.0 | Incorporation of [9-3H]NeuAc from donor [1] (ST3Gal-II [2]; [5]): (34569 CPM); Incorporation of [9-3H]NeuAc from donor [3] (ST3Gal-II [2]; acceptor 2.5 mM, 150 μM donor [3] of lower specific radioactivity, 1 mM 5′-CMP, 4 hours): (6224 CPM)***; Incorporation of [9-3H]NeuAc from donor [4] (ST3Gal-II [2]; [4]): (97675 CPM); Keq for transfer of sialic acid from CMP-NeuAc to [5] (ST3Gal-II [2]; donor 0.15 mM CMP-[9-3H]NeuAc): 5.55
7 | [9-^3H]NeuAcα2,3Galβ,13 (GlcNAcβ1,6)GalNAcα-O—Al [[1]] |  |  |  |  | transfer of radioactive [9-3H]NeuAc from donor to 5′-CMP (ST3Gal-II [1]; 150 μM donor, 1.0 mM 5′-CMP): > 90%

Second part, led by results:

Row | Incorporation of [9-3H]NeuAc expressed as percent of the CPM incorporated into 5′-CMP (ST3Gal-II [1]) [%] | Incorporation of [9-3H]NeuAc from donor [3], percent of the CPM incorporated into [5] (ST3Gal-II [2]; [3]) [%] | Incorporation of [9-3H]NeuAc from donor [4], percent of the CPM incorporated into [5] (ST3Gal-II [2]; [4]) [%] | Incorporation of [9-3H]NeuAc from donor [1], percent of the CPM incorporated into [5] (ST3Gal-II [2]; [5]) [%] | Compound | further results
8 | 2.4 |  |  |  | Nc1ccn([C@@H]2O[C@H](CO)[C@@H](OP(=O)(O)O)[C@H]2O)c(=O)n1 [3′-CMP] | 
9 | 1.6 |  |  |  | Nc1ccn([C@@H]2O[C@H](COP(=O)(O)OP(=O)(O)OP(=O)(O)O)[C@@H](O)[C@H]2O)c(=O)n1 [5′-CTP, cytidine triphosphate] | 
10 | 1.1 |  |  |  | Cc1cn([C@H]2C[C@H](O)[C@@H](COP(=O)(O)O)O2)c(=O)[nH]c1=O [5′-TMP] | 
11 |  | 106.5 | 96.9 |  | CC(=O)N[C@H]1[C@H](OC[C@H]2O[C@H](OCc3ccccc3)[C@H](NC(C)=O)[C@@H](O[C@@H]3O[C@H](C)[C@H](O)[C@H](O)[C@H]3O)[C@H]2O)O[C@H](CO)[C@@H](O)[C@@H]1O [[6], D-Fucβ1,3(GlcNAcβ1,6)GalNAcα-O-Bn] | 
12 |  | 4.1 | 33.3 | 60.8 | CC(=O)N[C@H]1[C@@H](OCc2ccccc2)O[C@H](CO)[C@H](O)[C@@H]1O[C@@H]1O[C@H](CO)[C@H](F)[C@H](O)[C@H]1O [[7], 4-FGalβ1,3GalNAcα-O-Bn] | 
13 |  | 3.3 | 21.5 | 43.0 | COC[C@H]1O[C@H](OCc2ccccc2)[C@H](NC(C)=O)[C@@H](O[C@@H]2O[C@H](CO)[C@H](O)[C@H](O)[C@H]2O)[C@H]1O [[8], Galβ1,3(6-O-Me)GalNAcα-O-Bn] | 
14 |  | 0.5 | 1.9 |  | CC(=O)N[C@H]1[C@H](OCc2ccccc2)O[C@H](CO)[C@@H](O[C@@H]2O[C@H](CO)[C@H](O)[C@H](O)[C@H]2O)[C@@H]1O [[12], Galβ1,4GlcNAcβ-O-Bn] | 
